Consider 13 compounds from US7456133B2, “Substituted arylketones” (Bayer CropScience AG, priority 2001, dated 2008).

Data set [1] can be described thus: Log P by reversed-phase HPLC (C 18), acidic range. The following applies: for chromatographic logP: reversed-phase HPLC column (C 18), given in the preparation examples, acidic or neutral range not given; for log P: reversed-phase HPLC (C 18), acidic range: 0.1% aqueous phosphoric acid, acetonitrile; 43° C.; labelled a). Type of data set: physicochemical. As to the method:
Log P values given in the tables were determined in accordance with EEC Directive 79/831 Annex V.A8 by HPLC (High Performance Liquid Chromatography) using a reversed-phase column (C 18). Temperature: 43° C. (a) Mobile phases for the determination in the acidic range: 0.1% aqueous phosphoric acid, acetonitrile; linear gradient from 10% acetonitrile to 90% acetonitrile—the corresponding measurement results in Tables 1 and 2 are labelled^a).

Data set [2] has as its system weeds. Briefly: Post-emergence test, damage to weeds. It is filed as in vivo. The following applies: test plants of 5-15 cm sprayed, rated after three weeks. As to the method:
Solvent: 5 part by weight of acetone
(§1) Emulsifier: 1 part by weight of alkylaryl polyglycol ether
(§2) To produce a suitable preparation of active compound, 1 part by weight of active compound is mixed with the stated amount of solvent, the stated amount of emulsifier is added and the concentrate is diluted with water to the desired concentration.
Test plants of a height of 5-15 cm are sprayed with the preparation of active compound such that the particular amounts of active compound desired are applied per unit area. The concentration of the spray liquor is chosen such that the particular amounts of active compound desired are applied in 1000 l of water/ha.
(§3) After three weeks, the degree of damage to the plants is rated in % damage in comparison to the development of the untreated control. The figures denote: • 0%=no effect (like untreated control) • 100%=total destruction

Data set [3] has as its system weeds. Description: Pre-emergence test, damage to weeds. The following applies: soil sprayed 24 hours after sowing, rated after three weeks. It is filed as in vivo. As to the method: Solvent: 5 parts by weight of acetone
as §1, §2
Seeds of the test plants are sown in normal soil. After 24 hours, the soil is sprayed with the preparation of active compound such that the particular amount of active compound desired is applied per unit area. The concentration of active compound in the spray liquor is chosen such that the particular amount of active compound desired is applied in 1000 litres of water per hectare.
as §3

As for `CCn1ncc(C(=O)c2ccc(Cl)c(OCCNC(C)=O)c2Cl)c1O` [Example I-2-1, N-(2-{2,6-dichloro-3-[(1-ethyl-5-hydroxy-1H-pyrazol-4-yl)-carbonyl]-phenoxy}-ethyl)-acetamide], the chromatographic logP (as a rule, lipophilicity estimated from chromatographic retention) in data set [1] was 1.41. Moreover, the activity against weeds result in the data set on weeds [2] and in the data set on weeds [3] was “strong activity” in each case. Compound `CC(C)NC(=S)NCc1c(Cl)ccc(C(=O)C2=C(O)CCCC2=O)c1Cl` [Example I-2-3] displayed a chromatographic logP in data set [1] of 2.74. The activity against weeds result in the data set on weeds [2] and in the data set on weeds [3] was “strong activity” throughout. `CCn1ncc(C(=O)c2ccc(Cl)c(OCCNC(C)=O)c2Cl)c1OCc1ccc(Br)cc1` [Example I-2-4, N-{2-[3-({5-[(4-bromo-benzyl)-oxy]-1-ethyl-1H-pyrazol-4-yl}-carbonyl)-2,6-dichloro-phenoxy]-ethyl}-acetamide] displayed a chromatographic logP in data set [1] of 2.06. Also, the activity against weeds entry with weeds [2] is given as “strong activity”. As for `CC(C)NC(=O)N(Cc1ccc(C(=O)C2C(=O)CCCC2=O)c([N+](=O)[O-])c1)c1ccccc1` [Example I-3-10], in data set [1], the “log P” value is “log P = 2.94^a)”.

With `CC(C)NC(=O)N(Cc1ccc(C(=O)c2cnn(C)c2O)c([N+](=O)[O-])c1)c1ccccc1` [Example I-3-11], the “log P” value in data set [1] was “log P = 2.05^a)”.

Turning to `CNC(=O)N(C)Cc1ccc(C(=O)c2cnn(C)c2O)c([N+](=O)[O-])c1` [Example I-3-25], in data set [1], the “log P” value was “log P = 0.68^a)”. For the compound `CC(C)N(Cc1ccc(C(=O)C2C(=O)CCCC2=O)c([N+](=O)[O-])c1)C(=O)Oc1ccccc1` [Example I-3-39], the “log P” value in data set [1] is “log P = 3.53^a)”. Same read-out and setting: to `CC(C)N(Cc1ccc(C(=O)c2cnn(C)c2O)c([N+](=O)[O-])c1)C(=O)Oc1ccccc1` [Example I-3-40] belongs “log P = 2.59^a)”; to `CCOC(=O)N(Cc1ccc(C(=O)C2C(=O)CCCC2=O)c([N+](=O)[O-])c1)C(C)C` [Example I-3-41], “log P = 3.04^a)”. The same measure, in the same setting: next, `CCOC(=O)N(Cc1ccc(C(=O)c2cnn(C)c2O)c([N+](=O)[O-])c1)C(C)C` [Example I-3-42]: “log P = 2.06^a)”. Compound `CCn1ncc(C(=O)c2ccc(Cl)c(OCCN)c2Cl)c1O` [II-1, [3-(2-amino-ethoxy)-2,4-dichloro-phenyl]-(1-ethyl-5-hydroxy-1H-pyrazol-4-yl)-methanone] displayed a chromatographic logP in data set [1] of 0.72. Compound `CCn1ncc(C(=O)c2ccc(Cl)c(OCCCl)c2Cl)c1O` [[2,4-dichloro-3-(2-chloro-ethoxy)-phenyl]-(1-ethyl-5-hydroxy-1H-pyrazol-4-yl)-methanone] showed a chromatographic logP in data set [1] of 2.73. Still for that read-out and setting: next, `CCOC(=O)c1ccc(Cl)c(OCCCl)c1Cl` [ethyl 2,4-dichloro-3-(2-chloro-ethoxy)-benzoate]: 3.76.
